Results: US20050233985A1, “Rsk inhibitors and therapeutic uses thereof” (priority 2003, published 2005)
“Also recorded” adds a separate entry of the source.

Columns and labels:
Rsk2 = molecular target: T1, Rsk2 (Homo sapiens, UniProt P51812, Y707A); test: Rsk kinase ELISA with immobilized substrate and phosphospecific antibodies; type: biochemical
T1 construct: His; made in house; host or cells: Sf9 (baculovirus, Bac-to-Bac)

protein kinase A (PKA) = molecular target: T2, protein kinase A (PKA) (Homo sapiens, UniProt P17612); test: PKA kinase ELISA; type: biochemical; conditions: purified compounds
T2 construct: made in house; host or cells: bacteria
Experimental: (§1) Kinase Assays. Glutathione-S-transferase (GST)-fusion protein (1 g) containing the sequence -[…] (SEQ ID NO: 3, for serine/threonine kinase assays) or -[…] (SEQ ID NO: 4, for tyrosine kinase assays) was adsorbed in the wells of LumiNunc 96-well polystyrene plates (MaxiSorp surface treatment). The wells were blocked with sterile 3% tryptone in phosphate buffered saline and stored at 4° C. for up to 6 months. Kinase (5 nM) in 70 μl of kinase buffer (5 mM -glycerophosphate pH 7.4, 25 mM HEPES pH 7.4, 1.5 mM DTT, 30 mM MgCl2, 0.15 M NaCl) was dispensed into each well. Compound at indicated concentrations or vehicle was added, and reactions were initiated by the addition of 30 μl of ATP for a final ATP concentration of 10 μM unless indicated otherwise. Reactions were terminated after 10 to 45 min by addition of 75 μl of 500 mM EDTA, pH 7.5. All assays measured the initial velocity of reaction. After extensive washing of wells, polyclonal phosphospecific antibody developed against the phosphopeptide and HRP-conjugated anti-rabbit antibody (211-035-109, Jackson ImmunoResearch Laboratories) were used to detect serine phosphorylation of the substrate. HRP-conjugated anti-phospho-tyrosine antibody (RC20, BD Transduction Laboratories) was used for phospho-tyrosine detection. His-tagged active Rsk and FAK were expressed in Sf9 cells and purified using NiNTA resin (Qiagen). Baculovirus was prepared using the Bac-to-Bac® baculovirus expression system (Invitrogen). PKA was bacterially expressed and activated as described (Anal. Biochem. 245, 115-122 (1997)). Active Msk1 and p70 S6 kinase was purchased from Upstate Biotechnology. Immunoprecipitation and kinase assays were performed as previously described (Poteet-Smith et al., J. Biol. Chem, 274, 22135-22138 (1999) using the immobilized GST-fusion proteins and ELISAs as above.

p70 S6K = molecular target: T3, p70 S6K (Homo sapiens, UniProt P23443); test: p70 S6K kinase ELISA; type: biochemical; conditions: purified compounds
T3 construct: purchased Upstate Biotechnology
T3 sequence (P23443 24-525): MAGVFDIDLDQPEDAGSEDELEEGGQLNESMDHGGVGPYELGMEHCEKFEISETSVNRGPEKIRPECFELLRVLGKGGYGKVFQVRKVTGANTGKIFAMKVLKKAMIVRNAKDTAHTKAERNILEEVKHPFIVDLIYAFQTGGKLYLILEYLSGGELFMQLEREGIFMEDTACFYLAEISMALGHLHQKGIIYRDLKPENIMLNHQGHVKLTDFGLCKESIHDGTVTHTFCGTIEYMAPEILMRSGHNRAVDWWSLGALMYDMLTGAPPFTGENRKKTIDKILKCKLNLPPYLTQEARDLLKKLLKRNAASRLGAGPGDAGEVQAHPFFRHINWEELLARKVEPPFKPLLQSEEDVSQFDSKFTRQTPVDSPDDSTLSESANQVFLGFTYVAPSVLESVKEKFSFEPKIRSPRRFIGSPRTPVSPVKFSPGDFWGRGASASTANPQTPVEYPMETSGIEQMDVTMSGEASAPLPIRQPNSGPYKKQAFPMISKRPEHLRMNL
Experimental: as §1

Rsk1 = molecular target: T4, Rsk1 (Homo sapiens, UniProt Q15418); test: Kinase assay of immunoprecipitated HA-tagged Rsk1; type: biochemical; conditions: 2 μM
T4 construct: expressed in transfected cells; host or cells: BHK21, transiently transfected, EGF-stimulated; anti-HA immunoprecipitate
T4 sequence (Q15418 whole entry): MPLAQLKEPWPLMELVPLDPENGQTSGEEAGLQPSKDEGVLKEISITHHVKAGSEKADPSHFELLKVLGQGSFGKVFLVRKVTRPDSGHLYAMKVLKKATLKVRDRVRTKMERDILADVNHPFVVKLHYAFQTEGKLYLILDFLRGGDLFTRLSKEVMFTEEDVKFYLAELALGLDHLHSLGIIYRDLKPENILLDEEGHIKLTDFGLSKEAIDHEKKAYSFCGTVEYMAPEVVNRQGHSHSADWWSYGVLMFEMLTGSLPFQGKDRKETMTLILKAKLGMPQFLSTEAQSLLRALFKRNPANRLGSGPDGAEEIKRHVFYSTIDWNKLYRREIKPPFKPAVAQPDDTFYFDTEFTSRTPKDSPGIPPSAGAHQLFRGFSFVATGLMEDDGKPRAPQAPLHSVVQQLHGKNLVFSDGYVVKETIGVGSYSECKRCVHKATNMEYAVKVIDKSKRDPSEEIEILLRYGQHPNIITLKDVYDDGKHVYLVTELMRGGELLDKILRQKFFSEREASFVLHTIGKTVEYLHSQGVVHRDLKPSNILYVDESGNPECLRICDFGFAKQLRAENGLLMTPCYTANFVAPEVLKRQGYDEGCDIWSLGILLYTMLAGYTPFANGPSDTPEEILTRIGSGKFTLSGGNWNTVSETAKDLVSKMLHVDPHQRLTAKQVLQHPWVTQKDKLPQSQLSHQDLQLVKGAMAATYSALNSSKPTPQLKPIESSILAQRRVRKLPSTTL
Excerpt: (§2) To determine whether the unique adenosine-interacting loop is sufficient for SL0101-1 specificity, the isozyme specificity of SL0101-1 was examined. The primary structure of the NTKDs of the Rsk isoforms 1-3 are highly related, sharing 87% identity and each contain the unique adenosine-interacting loop. HA-tagged proteins were immunoprecipitated from the lysates of EGF-stimulated BHK21 cells transiently transfected with the indicated HA-tagged constructs (Rsk1, Rsk2 and Rsk3). Assays were performed as described immediately above.
(§3) Kinase Assays. Glutathione-S-transferase (GST)-fusion protein (1 g) containing the sequence -[…] (SEQ ID NO: 3, for serine/threonine kinase assays) or -[…] (SEQ ID NO: 4, for tyrosine kinase assays) was adsorbed in the wells of LumiNunc 96-well polystyrene plates (MaxiSorp surface treatment). The wells were blocked with sterile 3% tryptone in phosphate buffered saline and stored at 4° C. for up to 6 months. Kinase (5 nM) in 70 μl of kinase buffer (5 mM -glycerophosphate pH 7.4, 25 mM HEPES pH 7.4, 1.5 mM DTT, 30 mM MgCl2, 0.15 M NaCl) was dispensed into each well. Compound at indicated concentrations or vehicle was added, and reactions were initiated by the addition of 30 μl of ATP for a final ATP concentration of 10 μM unless indicated otherwise. […] All assays measured the initial velocity of reaction. […]

Rsk3 = molecular target: T5, Rsk3 (Homo sapiens, UniProt Q15349); test: Kinase assay of immunoprecipitated HA-tagged Rsk3; type: biochemical; conditions: 2 μM
T5 construct: expressed in transfected cells; host or cells: BHK21, transiently transfected, EGF-stimulated; anti-HA immunoprecipitate
T5 sequence (Q15349 whole entry): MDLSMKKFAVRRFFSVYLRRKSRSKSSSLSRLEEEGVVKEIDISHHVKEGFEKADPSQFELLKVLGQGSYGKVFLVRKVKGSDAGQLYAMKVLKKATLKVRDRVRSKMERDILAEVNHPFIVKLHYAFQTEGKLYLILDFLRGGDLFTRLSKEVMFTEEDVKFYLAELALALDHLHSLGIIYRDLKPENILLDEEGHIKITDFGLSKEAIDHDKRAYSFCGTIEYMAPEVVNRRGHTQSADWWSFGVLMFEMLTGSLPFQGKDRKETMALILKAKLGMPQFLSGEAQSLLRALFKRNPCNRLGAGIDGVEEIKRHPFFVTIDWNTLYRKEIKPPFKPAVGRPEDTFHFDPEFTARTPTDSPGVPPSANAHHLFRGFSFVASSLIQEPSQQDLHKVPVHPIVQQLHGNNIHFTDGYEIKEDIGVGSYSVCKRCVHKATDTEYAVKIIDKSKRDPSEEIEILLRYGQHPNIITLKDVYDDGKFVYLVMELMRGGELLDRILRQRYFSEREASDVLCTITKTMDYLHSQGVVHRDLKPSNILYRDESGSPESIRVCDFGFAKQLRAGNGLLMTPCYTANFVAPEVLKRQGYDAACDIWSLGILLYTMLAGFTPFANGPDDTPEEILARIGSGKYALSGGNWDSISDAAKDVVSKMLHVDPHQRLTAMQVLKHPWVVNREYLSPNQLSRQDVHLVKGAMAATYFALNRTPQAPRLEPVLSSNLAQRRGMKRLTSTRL
Excerpt: as §2, §3

[1] = tested on: Ha-ras-transformed NIH/3T3 cells; test: Proliferation of transformed cells (CellTiter-Glo); type: cell-based
Experimental: (§4) Cells were treated with vehicle, 50 μM SL0101, or 50 μM PD 98059 (PD 98059 is a MEK-specific inhibitor). Proliferation was measured using Promega CellTiter-Glo™ Luminescent cell viability assay.
(§5) Cell Culture. For proliferation studies cells were seeded at 2500 to 5000 cells per well in 96 well tissue culture plates in the appropriate medium as described by American Type Culture Collection. After 24 hr, the medium was replaced with medium containing compound or vehicle as indicated. Cell viability was measured at indicated time points using CellTiter-Glo™ assay reagent (Promega) according to manufacturer's protocol. For in vivo inhibition studies, cells were seeded at 2.5×10^5 cells/well in 12 well cell culture clusters. After 24 hr, the cells were serum starved for 24 hr then incubated with compound or vehicle for 3 hr prior to a 30 min PDB stimulation. Cells were lysed as previously described (J. Biol. Chem. 273, 13317-13323 (1998)). The lysates were normalized for total protein, electrophoresed and immunoblotted. For cell imaging, Ha-Ras-transformed NIH/3T3 cells were seeded on LABTEK II chamber slides (Nalge) at a density of 1×10^4 cells/well. After 24 hr, fresh medium was added the indicated compounds or vehicle. Images were taken 48 hr after treatment at a magnification of 20×.

parental NIH/3T3 cells = test: Proliferation of parental cells (CellTiter-Glo); type: cell-based; conditions: 50 μM, compared to vehicle
Experimental: as §4, §5

MCF-7 cells = type: cell-based
Experimental: (§6) Cell viability was measured at indicated time points. Proliferation assays were conducted using CellTiter-Glo Luminescent Cell Viability Assay (Promega), performed 44 hrs after treatment for FIGS. 8A &B and at indicated points for FIG. 8C. The data are expressed relative to time 0.
as §5

MCF-10A cells = test: Proliferation of MCF-10A cells (CellTiter-Glo); type: cell-based; conditions: 50 μM, 44 hrs after treatment
Experimental: as §6, §5

LNCaP cells = test: Proliferation of LNCaP cells (CellTiter-Glo); type: cell-based, human; conditions: 50 μM, 44 hrs after treatment
Experimental: as §6, §5

MAPK, MEK, Raf and PKC = test: Upstream MAPK pathway kinases in PDB-stimulated cells (Rsk mobility shift, anti-active MAPK); type: cell-based, human
Experimental: Specific inhibition of Rsk in situ was determined by incubation of MCF-7 cells in the presence or absence of increasing concentrations of extract fraction enriched in SL0101 prior to stimulation of the MAPK pathway with phorbol dibutyrate (PDB). […] Thus, SL0101 is a Rsk-specific inhibitor in situ as well as in vitro and can be used as an investigative tool for defining the function of Rsk in situ.
Cells were treated with 500 nM PDB for 30 min prior to lysis. Protein concentration of lysates was measured and lysates were electrophoresed, transferred and immunoblotted.
as §5

T1 sequence (P51812 whole entry Y707A): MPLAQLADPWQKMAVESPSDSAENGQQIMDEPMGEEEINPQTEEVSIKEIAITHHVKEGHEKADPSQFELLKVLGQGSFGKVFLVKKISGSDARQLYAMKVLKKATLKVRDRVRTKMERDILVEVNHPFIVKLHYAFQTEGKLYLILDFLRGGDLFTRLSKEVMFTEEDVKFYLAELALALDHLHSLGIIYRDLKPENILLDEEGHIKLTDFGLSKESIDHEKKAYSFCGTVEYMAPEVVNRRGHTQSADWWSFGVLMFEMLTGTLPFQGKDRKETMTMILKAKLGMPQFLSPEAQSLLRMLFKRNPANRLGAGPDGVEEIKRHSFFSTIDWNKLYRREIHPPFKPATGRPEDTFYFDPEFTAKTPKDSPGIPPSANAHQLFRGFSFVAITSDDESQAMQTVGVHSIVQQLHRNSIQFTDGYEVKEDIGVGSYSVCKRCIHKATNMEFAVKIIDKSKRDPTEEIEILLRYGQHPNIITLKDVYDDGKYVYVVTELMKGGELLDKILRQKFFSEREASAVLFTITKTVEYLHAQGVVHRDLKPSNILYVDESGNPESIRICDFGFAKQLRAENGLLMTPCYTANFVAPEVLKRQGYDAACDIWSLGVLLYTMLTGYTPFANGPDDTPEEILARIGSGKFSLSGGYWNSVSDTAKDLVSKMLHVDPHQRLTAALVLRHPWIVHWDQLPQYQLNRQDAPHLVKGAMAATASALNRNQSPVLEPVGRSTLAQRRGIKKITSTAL

SMILES: CC(=O)OC1C(C)OC(Oc2c(-c3ccc(O)cc3)oc3cc(O)cc(O)c3c2=O)C(O)C1OC(C)=O [SL0101-1, kaempferol 3-α-L-(3″,4″-diacetyl) rhamnopyranoside]
- specificity for Rsk compared to p70 S6K and Msk1 (Rsk2; 5 μM inhibitor, 5 nM purified kinases, 30 mins, 10 μM ATP): specific for inhibition of Rsk activity; also recorded: specifically inhibits
- mechanism of Rsk inhibition (Rsk2; with respect to ATP): competitive with respect to ATP
- inhibition of Protein Kinase A (protein kinase A (PKA)): do not inhibit
- inhibition of p70 S6 kinase (p70 S6K): do not inhibit
- Rsk1 activity (Rsk1): potently reduced
- Rsk3 activity (Rsk3): only partially inhibited
- reversibility of inhibition of cell proliferation (washout) ([1]; 50 μM for 48 hr, then medium replaced, viability 48 hr later): resulted in growth of the transformed cells; also recorded: reversible
- proliferation of Ha-ras-transformed NIH/3T3 cells ([1]; 50 μM, 48 hour time course, 10% fetal calf serum): decreased the growth rate; also recorded: halts proliferation; also recorded: inhibits; also recorded: inhibited the proliferation
- toxicity to intact cells ([1]; Ha-Ras transformed and parental NIH/3T3 cells): not toxic
- morphology of transformed cells ([1]; images 48 hr after treatment): striking morphology changes
- proliferation of parental NIH/3T3 cells (parental NIH/3T3 cells): little effect; also recorded: little influence; also recorded: not the parental cells
- cell death of MCF-7 cells (MCF-7 cells; 50 μM): did not cause cell death
- MCF-7 cell viability compared to vehicle control (MCF-7 cells; 50 μM in serum-free medium (serum deprivation)): significantly reduced cell viability
- proliferation of MCF-7 cells (MCF-7 cells; 50 μM, 44 hrs after treatment): inhibited proliferation; also recorded: inhibits the proliferation
- growth of MCF-10A cells (MCF-10A cells): no effect; also recorded: without preventing the proliferation
- proliferation of LNCaP cells (LNCaP cells): completely inhibit
- activation of MAPK (anti-active MAPK antibody) (MAPK, MEK, Raf and PKC): does not effect
- inhibition of upstream kinases PKC, Raf, MEK, MAPK in cells (MAPK, MEK, Raf and PKC): does not inhibit
- phosphorylation of Rsk by MAPK (reduced electrophoretic mobility) (MAPK, MEK, Raf and PKC): does not effect
